Measured values as given in PubChem BioAssay (NCI).
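GI50: concentration for 50% inhibition of growth. TGI denotes the concentration required for complete inhibition of growth.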

Columns and labels:
Test in all cases: DTP human tumour cell line panel, 384-well format; in the data active means GI50 below about 0.43 µM; inactive means the rest
786-0 renal = test system: 786-0 renal
A498 renal = test system: A498 renal
A549 NSCLC = test system: A549 NSCLC
ACHN renal = test system: ACHN renal
BT-549 breast = test system: BT-549 breast
CAKI-1 renal = test system: CAKI-1 renal
COLO 205 colon = test system: COLO 205 colon
DU-145 prostate = test system: DU-145 prostate
EKVX NSCLC = test system: EKVX NSCLC
HCT-116 colon = test system: HCT-116 colon
HCT-15 colon = test system: HCT-15 colon
HL-60(TB) leukemia = test system: HL-60(TB) leukemia
HOP-62 NSCLC = test system: HOP-62 NSCLC
HOP-92 NSCLC = test system: HOP-92 NSCLC
HS 578T breast = test system: HS 578T breast
HT29 colon = test system: HT29 colon
IGROV1 ovarian = test system: IGROV1 ovarian
K-562 leukemia = test system: K-562 leukemia
KM12 colon = test system: KM12 colon
M14 melanoma = test system: M14 melanoma
MALME-3M melanoma = test system: MALME-3M melanoma
MCF7 breast = test system: MCF7 breast
MDA-MB-231 breast = test system: MDA-MB-231 breast
MDA-MB-435 melanoma = test system: MDA-MB-435 melanoma
MDA-MB-468 breast = test system: MDA-MB-468 breast
MOLT-4 leukemia = test system: MOLT-4 leukemia
NCI-H226 lung = test system: NCI-H226 lung
NCI-H23 lung = test system: NCI-H23 lung
NCI-H322M lung = test system: NCI-H322M lung
NCI-H460 NSCLC = test system: NCI-H460 NSCLC
NCI-H522 lung = test system: NCI-H522 lung
OVCAR-3 ovarian = test system: OVCAR-3 ovarian
OVCAR-4 ovarian = test system: OVCAR-4 ovarian
OVCAR-5 ovarian = test system: OVCAR-5 ovarian
OVCAR-8 ovarian = test system: OVCAR-8 ovarian
PC-3 prostate = test system: PC-3 prostate
RXF 393 renal = test system: RXF 393 renal
SF-268 CNS = test system: SF-268 CNS
SF-295 CNS = test system: SF-295 CNS
SF-539 CNS = test system: SF-539 CNS
SK-MEL-2 melanoma = test system: SK-MEL-2 melanoma
SK-MEL-28 melanoma = test system: SK-MEL-28 melanoma
SK-MEL-5 melanoma = test system: SK-MEL-5 melanoma
SK-OV-3 ovarian = test system: SK-OV-3 ovarian
SN12C renal = test system: SN12C renal
SNB-19 CNS = test system: SNB-19 CNS
SNB-75 CNS = test system: SNB-75 CNS
SR leukemia = test system: SR leukemia
SW-620 colon = test system: SW-620 colon
T-47D breast = test system: T-47D breast
TK-10 renal = test system: TK-10 renal
U251 glioblastoma = test system: U251 glioblastoma
UACC-257 melanoma = test system: UACC-257 melanoma
UACC-62 melanoma = test system: UACC-62 melanoma
UO-31 renal = test system: UO-31 renal

Cn1cc(Nc2nccc(-c3ccc4c(c3)CN(C3COC3)CC[C@H]4NC(=O)c3cn(C(C)(C)C)nn3)n2)cn1
inactive: GI50 ([…]-0 renal) > 100 µM | GI50 (A498 renal) > 100 µM | GI50 (A549 NSCLC) 60.9 µM | GI50 (ACHN renal) 41.9 µM | GI50 (BT-549 breast) 51.6 µM | GI50 (CAKI-1 renal) 44.7 µM | GI50 (COLO 205 colon) 37.7 µM | GI50 (DU-145 prostate) > 100 µM | GI50 (EKVX NSCLC) 28 µM | GI50 (HCT-116 colon) 44.5 µM | GI50 (HCT-15 colon) > 100 µM | GI50 (HL-60(TB) leukemia) 35.1 µM | GI50 (HOP-62 NSCLC) > 100 µM | GI50 (HOP-92 NSCLC) 52.7 µM | GI50 (HS 578T breast) 84.7 µM | GI50 (HT29 colon) 32.1 µM | GI50 (IGROV1 ovarian) 18.6 µM | GI50 (K-562 leukemia) 11.2 µM | GI50 (KM12 colon) 56 µM | GI50 (M14 melanoma) 36.5 µM | GI50 (MALME-3M melanoma) 45.5 µM | GI50 (MCF7 breast) 20.8 µM | GI50 (MDA-MB-231 breast) 78.1 µM | GI50 (MDA-MB-435 melanoma) 43.2 µM | GI50 (MDA-MB-468 breast) 23.7 µM | GI50 (MOLT-4 leukemia) 15.3 µM | GI50 (NCI-H226 lung) 33 µM | GI50 (NCI-H23 lung) 30.2 µM | GI50 (NCI-H322M lung) 68 µM | GI50 (NCI-H460 NSCLC) 44.2 µM | GI50 (NCI-H522 lung) 22.1 µM | GI50 (OVCAR-3 ovarian) 60.9 µM | GI50 (OVCAR-4 ovarian) 54.4 µM | GI50 (OVCAR-5 ovarian) 61.5 µM | GI50 (OVCAR-8 ovarian) > 100 µM | GI50 (PC-3 prostate) > 100 µM | GI50 (RXF 393 renal) 11.4 µM | GI50 (SF-268 CNS) > 100 µM | GI50 (SF-295 CNS) > 100 µM | GI50 (SF-539 CNS) 49.2 µM | GI50 (SK-MEL-2 melanoma) 66.3 µM | GI50 (SK-MEL-28 melanoma) 37.1 µM | GI50 (SK-MEL-5 melanoma) 27.3 µM | GI50 (SK-OV-3 ovarian) 29.5 µM | GI50 (SN12C renal) 46.7 µM | GI50 (SNB-19 CNS) > 100 µM | GI50 (SNB-75 CNS) 45.8 µM | GI50 (SR leukemia) 12.9 µM | GI50 (SW-620 colon) 48.5 µM | GI50 (T-47D breast) 30.9 µM | GI50 (TK-10 renal) 70.8 µM | GI50 (U251 glioblastoma) > 100 µM | GI50 (UACC-257 melanoma) 43.4 µM | GI50 (UACC-62 melanoma) 27.3 µM | GI50 (UO-31 renal) 48 µM
29.4 µM: TGI (MOLT-4 leukemia)
24.6 µM: TGI (K-562 leukemia)
54.4 µM: TGI (IGROV1 ovarian)
54.1 µM: TGI (RXF 393 renal)
> 100 µM: TGI (786-0 renal) | TGI (A498 renal) | TGI (A549 NSCLC) | TGI (ACHN renal) | TGI (BT-549 breast) | TGI (CAKI-1 renal) | TGI (COLO 205 colon) | TGI (DU-145 prostate) | TGI (EKVX NSCLC) | TGI (HCT-116 colon) | TGI (HCT-15 colon) | TGI (HL-60(TB) leukemia) | TGI (HOP-62 NSCLC) | TGI (HOP-92 NSCLC) | TGI (HS 578T breast) | TGI (HT29 colon) | TGI (KM12 colon) | TGI (M14 melanoma) | TGI (MALME-3M melanoma) | TGI (MCF7 breast) | TGI (MDA-MB-231 breast) | TGI (MDA-MB-435 melanoma) | TGI (MDA-MB-468 breast) | TGI (NCI-H226 lung) | TGI (NCI-H23 lung) | TGI (NCI-H322M lung) | TGI (NCI-H460 NSCLC) | TGI (OVCAR-3 ovarian) | TGI (OVCAR-4 ovarian) | TGI (OVCAR-5 ovarian) | TGI (OVCAR-8 ovarian) | TGI (PC-3 prostate) | TGI (SF-268 CNS) | TGI (SF-295 CNS) | TGI (SF-539 CNS) | TGI (SK-MEL-2 melanoma) | TGI (SK-MEL-28 melanoma) | TGI (SK-MEL-5 melanoma) | TGI (SK-OV-3 ovarian) | TGI (SN12C renal) | TGI (SNB-19 CNS) | TGI (SNB-75 CNS) | TGI (SW-620 colon) | TGI (T-47D breast) | TGI (TK-10 renal) | TGI (U251 glioblastoma) | TGI (UACC-257 melanoma) | TGI (UACC-62 melanoma) | TGI (UO-31 renal)
27.1 µM: TGI (SR leukemia)
74 µM: TGI (NCI-H522 lung)

Cc1ncnc2c1ccn2[C@@H]1C[C@H](Oc2cc(C(F)F)c(F)c3c2CNCC3)[C@@H](O)[C@H]1O
30.8 µM: TGI (HL-60(TB) leukemia)
96 µM: TGI (EKVX NSCLC)
12.2 µM: TGI (SR leukemia)
37.6 µM: TGI (T-47D breast)
42.3 µM: TGI (SK-MEL-28 melanoma)
50.1 µM: TGI (SK-MEL-2 melanoma)
59.8 µM: TGI (SF-295 CNS)
38.4 µM: TGI (M14 melanoma)
27.6 µM: TGI (UACC-257 melanoma)
88.6 µM: TGI (SNB-75 CNS)
inactive: GI50 ([…]-0 renal) 23.6 µM | GI50 (A498 renal) 19.3 µM | GI50 (A549 NSCLC) 57.8 µM | GI50 (ACHN renal) 39.6 µM | GI50 (BT-549 breast) 24.7 µM | GI50 (CAKI-1 renal) 19.1 µM | GI50 (COLO 205 colon) 46.5 µM | GI50 (DU-145 prostate) 82.9 µM | GI50 (EKVX NSCLC) 12.8 µM | GI50 (HCT-116 colon) 15 µM | GI50 (HCT-15 colon) 30.5 µM | GI50 (HL-60(TB) leukemia) 17 µM | GI50 (HOP-62 NSCLC) 28.2 µM | GI50 (HOP-92 NSCLC) 28.1 µM | GI50 (HS 578T breast) 19.3 µM | GI50 (HT29 colon) 14 µM | GI50 (IGROV1 ovarian) 57.1 µM | GI50 (K-562 leukemia) 11.1 µM | GI50 (M14 melanoma) 18.4 µM | GI50 (MALME-3M melanoma) 15.5 µM | GI50 (MCF7 breast) 6.49 µM | GI50 (MDA-MB-231 breast) 39.2 µM | GI50 (MDA-MB-435 melanoma) 38.4 µM | GI50 (MDA-MB-468 breast) 6.74 µM | GI50 (NCI-H226 lung) 25.7 µM | GI50 (NCI-H23 lung) 12.9 µM | GI50 (NCI-H322M lung) 24.2 µM | GI50 (NCI-H522 lung) 33 µM | GI50 (OVCAR-3 ovarian) 17.7 µM | GI50 (OVCAR-5 ovarian) > 100 µM | GI50 (OVCAR-8 ovarian) 87.5 µM | GI50 (PC-3 prostate) 19.8 µM | GI50 (RXF 393 renal) 3.75 µM | GI50 (SF-268 CNS) 29 µM | GI50 (SF-295 CNS) 18.9 µM | GI50 (SF-539 CNS) 36.2 µM | GI50 (SK-MEL-2 melanoma) 22.1 µM | GI50 (SK-MEL-28 melanoma) 17.2 µM | GI50 (SK-MEL-5 melanoma) 5.57 µM | GI50 (SK-OV-3 ovarian) 41.9 µM | GI50 (SN12C renal) 49.9 µM | GI50 (SNB-19 CNS) > 100 µM | GI50 (SNB-75 CNS) 20.8 µM | GI50 (SW-620 colon) 33.3 µM | GI50 (T-47D breast) 1.92 µM | GI50 (TK-10 renal) 25.5 µM | GI50 (U251 glioblastoma) 31.6 µM | GI50 (UACC-257 melanoma) 13.5 µM | GI50 (UACC-62 melanoma) 12.5 µM | GI50 (UO-31 renal) 26.4 µM
63.3 µM: TGI (HCT-116 colon)
31.3 µM: TGI (MALME-3M melanoma)
52.1 µM: TGI (NCI-H23 lung)
24.9 µM: TGI (RXF 393 renal)
53.3 µM: TGI (UACC-62 melanoma)
23.8 µM: TGI (K-562 leukemia)
active: GI50 (KM12 colon) 0.0943 µM | GI50 (NCI-H460 NSCLC) 0.221 µM
> 100 µM: TGI (786-0 renal) | TGI (A498 renal) | TGI (A549 NSCLC) | TGI (ACHN renal) | TGI (BT-549 breast) | TGI (CAKI-1 renal) | TGI (COLO 205 colon) | TGI (DU-145 prostate) | TGI (HCT-15 colon) | TGI (HOP-62 NSCLC) | TGI (HOP-92 NSCLC) | TGI (HS 578T breast) | TGI (HT29 colon) | TGI (IGROV1 ovarian) | TGI (KM12 colon) | TGI (MCF7 breast) | TGI (MDA-MB-231 breast) | TGI (MDA-MB-435 melanoma) | TGI (NCI-H226 lung) | TGI (NCI-H322M lung) | TGI (NCI-H460 NSCLC) | TGI (NCI-H522 lung) | TGI (OVCAR-3 ovarian) | TGI (OVCAR-5 ovarian) | TGI (OVCAR-8 ovarian) | TGI (PC-3 prostate) | TGI (SF-268 CNS) | TGI (SF-539 CNS) | TGI (SK-OV-3 ovarian) | TGI (SN12C renal) | TGI (SNB-19 CNS) | TGI (SW-620 colon) | TGI (TK-10 renal) | TGI (U251 glioblastoma) | TGI (UO-31 renal)
20.6 µM: TGI (SK-MEL-5 melanoma)
35.2 µM: TGI (MDA-MB-468 breast)
